Laboratory results reported in publication PMC7108740, “Exploring the molecular structures that confer ligand selectivity for galanin type II and III receptors” (PLoS ONE, 2020).

Tests used:
Format in all cases: cell-based
[1] = molecular target: T1, GALR3 mutant L^184M,V^186I,A^187C (Homo sapiens, UniProt O60755, A187C/L184M/V186I); test: SRE-luc luciferase assay, GALR3 L184M,V186I,A187C; conditions: GALR3 L^184M,V^186I,A^187C; SRE-luc in HEK293 Gqi cells, ligand 6 h; mean ± S.E.; SEM
T1 construct: expressed in transfected cells; host or cells: HEK293 cells stably expressing Gqi
T1 sequence (O60755 whole entry L184M/V186I/A187C): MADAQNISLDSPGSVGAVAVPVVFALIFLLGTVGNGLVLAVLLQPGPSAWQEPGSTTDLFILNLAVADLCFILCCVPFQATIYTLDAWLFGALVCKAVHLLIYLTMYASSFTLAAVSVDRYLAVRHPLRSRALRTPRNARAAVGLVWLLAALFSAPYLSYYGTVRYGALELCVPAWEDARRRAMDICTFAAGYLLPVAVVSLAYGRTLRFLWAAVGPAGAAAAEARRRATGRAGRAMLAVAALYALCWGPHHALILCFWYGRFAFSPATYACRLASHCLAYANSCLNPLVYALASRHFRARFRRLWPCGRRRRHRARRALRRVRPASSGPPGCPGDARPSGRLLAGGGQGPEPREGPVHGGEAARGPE
Description: (§1) For domain swapping between GALR2 and GALR3, individual cDNA fragments of interest were amplified by polymerase chain reaction (PCR) with Pfu polymerase (ELPIS Biotech, Daejeon, Korea) and two specific primers, one corresponding to the 5' or 3' end of the GALR2 or GALR3 cDNA and the other to the region of overlap between the two receptors. The two resulting fragments, one from GALR2 and the other from GALR3, were subjected to a second round of PCR to generate the chimeric cDNAs. To construct single, double-, triple-, pentuple-, hextuple-, and septuple-mutant receptors, amino acids of GALR3 were substituted for the amino acids at the corresponding positions in GALR2 using PCR-based site-directed mutagenesis. All of the chimeric constructs were cloned into the pcDNA3 expression vector at HindⅢ and XbaⅠ sites. The DNA sequences of the chimeras were verified by automatic sequencing. […] The luciferase activity in 50 μl cell extract was determined using a luciferase assay system according to the standard protocol for the Synergy 2 Multi-Mode Microplate Reader (BioTek, Winooski, VT, USA). […] The concentrations of agonists that induced half-maximal stimulation (EC50) were calculated using the GraphPad PRISM5 software (GraphPad software, Inc., San Diego, CA). […]

[2] = molecular target: T2, GALR3 mutant L^184M,V^186I,A^190V (Homo sapiens, UniProt O60755, A190V/L184M/V186I); test: SRE-luc luciferase assay, GALR3 L184M,V186I,A190V; conditions: GALR3 L^184M,V^186I,A^190V; SRE-luc in HEK293 Gqi cells, ligand 6 h; mean ± S.E.; SEM
T2 construct: expressed in transfected cells; host or cells: HEK293 cells stably expressing Gqi
T2 sequence (O60755 whole entry L184M/V186I/A190V): as the sequence (O60755 whole entry L184M/V186I/A187C) above, with C187A, A190V counted along it
Description: as §1

[3] = molecular target: T3, GALR3 mutant A^190V,A^191F,G^192S (Homo sapiens, UniProt O60755, A190V/A191F/G192S); test: SRE-luc luciferase assay, GALR3 A190V,A191F,G192S; conditions: GALR3 A^190V,A^191F,G^192S; SRE-luc in HEK293 Gqi cells, ligand 6 h; mean ± S.E.; SEM
T3 construct: expressed in transfected cells; host or cells: HEK293 cells stably expressing Gqi
T3 sequence (O60755 whole entry A190V/A191F/G192S): as the sequence (O60755 whole entry L184M/V186I/A187C) above, with M184L, I186V, C187A, A190V, A191F, G192S counted along it
Description: as §1

[4] = molecular target: T4, GALR3 mutant L^184M,V^186I,A^187C, A^190V,A^191F (Homo sapiens, UniProt O60755, A187C/A190V/A191F/L184M/V186I); test: SRE-luc luciferase assay, GALR3 pentuple mutant (A191F); conditions: GALR3 L^184M,V^186I,A^187C, SRE-luc in HEK293 Gqi cells, ligand 6 h, mean ± S.E., SEM
T4 construct: expressed in transfected cells; host or cells: HEK293 cells stably expressing Gqi
T4 sequence (O60755 whole entry L184M/V186I/A187C/A190V/A191F): as the sequence (O60755 whole entry L184M/V186I/A187C) above, with A190V, A191F counted along it
Description: as §1

[5] = molecular target: T5, GALR3 mutant L^184M,V^186I,A^187C, A^190V,G^192S (Homo sapiens, UniProt O60755, A187C/A190V/G192S/L184M/V186I); test: SRE-luc luciferase assay, GALR3 pentuple mutant (G192S); conditions: GALR3 L^184M,V^186I,A^187C, SRE-luc in HEK293 Gqi cells, ligand 6 h, mean ± S.E., SEM
T5 construct: expressed in transfected cells; host or cells: HEK293 cells stably expressing Gqi
T5 sequence (O60755 whole entry L184M/V186I/A187C/A190V/G192S): as the sequence (O60755 whole entry L184M/V186I/A187C) above, with A190V, G192S counted along it
Description: as §1

[6] = molecular target: T6, GALR3 mutant L^184M,V^186I,A^187C, A^190V,A^191F,G^192S (Homo sapiens, UniProt O60755, A187C/A190V/A191F/G192S/L184M/V186I); test: SRE-luc luciferase assay, GALR3 hextuple mutant; conditions: GALR3 L^184M,V^186I,A^187C, SRE-luc in HEK293 Gqi cells, ligand 6 h, mean ± S.E., SEM
T6 construct: expressed in transfected cells; host or cells: HEK293 cells stably expressing Gqi
T6 sequence (O60755 whole entry L184M/V186I/A187C/A190V/A191F/G192S): as the sequence (O60755 whole entry L184M/V186I/A187C) above, with A190V, A191F, G192S counted along it
Description: as §1

EC50 [1]: 115 ± 2.61 nM
EC50 [2]: 49 ± 16.6 nM
EC50 [3]: 33.9 ± 11 nM
EC50 [4]: 50.1 ± 16.2 nM
EC50 [5]: 33.9 ± 9.89 nM
EC50 [6]: 25.7 ± 7.92 nM
Compound: CSCC[C@H](NC(=O)[C@H](C)NC(=O)[C@H](CCC(N)=O)NC(=O)[C@@H]1CCCN1C(=O)[C@@H](NC(=O)[C@H](Cc1c[nH]c2ccccc12)NC(=O)[C@@H](N)CC(N)=O)[C@@H](C)O)C(=O)N[C@@H](CC(C)C)C(=O)N[C@@H](Cc1ccc(O)cc1)C(=O)N[C@@H](CC(C)C)C(=O)N[C@@H](CCCCN)C(=O)NCC(=O)N[C@@H](C)C(=O)N[C@@H](CCC(N)=O)C(N)=O [SPX, reference compound]
